Experimental data from ChEMBL document CHEMBL4017528, “Fragment-Based Discovery and Optimization of Enzyme Inhibitors by Docking of Commercial Chemical Space” (J Med Chem, 2017).

Assays:
[1] = biological target: Oxidized purine nucleoside triphosphate hydrolase (Homo sapiens, UniProt P36639); assay: Inhibition of human recombinant His-tagged MTH1 expressed in Escherichia coli BL21 using dGTP as substrate after 15 mins by malachite green reagent-based assay
HeLa = assay: Cytotoxicity against human HeLa cells after 72 hrs by WST-8 assay; type: functional, cell-based

Structure (SMILES)	IC50 [1]	EC50 (HeLa)
Nc1nc(SCCc2ccccc2)c2nc[nH]c2n1	0.17 µM	–
Nc1nc(NCCc2ccccc2)c2nc[nH]c2n1	–	35 µM
CSc1nc2c(N)ncnc2[nH]1	24 µM	–
Cc1nc(N)nc2ccccc12	5.6 µM	–
